Experimental data from patent US9518004B2, “Reduced coenzyme Q10 derivative and method for production thereof” (KANEKA CORPORATION, priority 2012, dated 2016).

Assay: Oral absorbability in rats: overall coenzyme Q10 concentration in plasma by HPLC after oral administration (AUC)
Design: species or system Spregue-Dawley rats
Details: rat, in vivo, 57.8 umol/kg
Description: (§1) To seven-weeks old male Spregue-Dawley rats (obtained from Japan SLC, Inc.) were orally administered the derivatives of reduced coenzyme Q10 obtained in Examples 3, 4 and 5 and the starting reduced coenzyme Q10 as control each in 57.8 μmol/kg (50 mg/kg in terms of reduced coenzyme Q10). Blood was extracted from each rat after 1, 2, 4, 8 and 24 hours after administration of each sample. Each extracted blood was centrifuged, so that plasma was obtained. Then, oxidation treatment of reduced coenzyme Q10 in the plasma and extraction treatment of oxidized coenzyme Q10 were performed, and then the overall coenzyme Q10 concentration in the plasma was measured as oxidized coenzyme Q10 by using HPLC.
as §1, with “derivative” for “derivatives”, “Referential Example 1” for “Examples 3, 4 and 5”

Structure (SMILES): COc1c(OC(C)=O)c(C)c(CC=C(C)CCC=C(C)CCC=C(C)CCC=C(C)CCC=C(C)CCC=C(C)CCC=C(C)CCC=C(C)CCC=C(C)CCC=C(C)C)c(OC(C)=O)c1OC [Bisacetyl derivative, Bisacetyl Derivative]
- AUC (area under the blood concentration-time curve) as compared with reduced coenzyme Q10, in words: lower
